Here are results for three compounds from patent publication US8217013B2, “Polyene diester antibiotics” (priority 2007, dated 2012).

One may read the zone of inhibition as the size of the clear area around the sample on an inoculated plate.

Like-named read-outs stand apart in the source and are kept apart here.

One data set relates to Candida albicans. In words: Test of antibacterial activity in vitro (bacteria-inhibition zone). It counts as cell-based. The conditions noted are these: for zone of inhibition at 1.4 µg/mL / zone of inhibition at 2.8 µg/mL: Candida albicans.
A further data set relates to most of the fungal. The following applies: for most of the fungal; cited from earlier work.
In another data set the test system is Candida mycoderma. The experiment in a line: Test of antibacterial activity in vitro (bacteria-inhibition zone). It counts as cell-based.
In a further data set the test system is Saccharomyces cerevisiae. The description is as above. It counts as cell-based. The conditions noted are these: for zone of inhibition at 1.4 µg/mL / zone of inhibition at 2.8 µg/mL: Saccharomyces cerevisiae.
In data set [1] the test system is esterase. The conditions noted are these: cited from earlier work.
The conditions of data set [2]: study by Rutgers University; cited from earlier work.
The subject of data set [3] is esterase. In words: Test of esterase hydrolysis in sheep blood serum (HPLC). It counts as in vitro ADME. The method, then: Test of Esterase […]
Experiment drugs: the amphotericin B methyl pivalate prepared by example 1
Control drug: amphotericin B (standard product)
The stationary phase: Hypersil ODS2 5 um 4.6 mm×250 mm
The mobile phase: methanol: acetonitrile: EDTA-2Na (0.5 mmol)=60:20:20 flow rate: 1 ml/min
Detection system: ultraviolet detection, detection wavelength: 410 nm
Taking appropriate amount of the above mentioned amphotericin B, and amphotericin B methyl pivalate prepared by example 1, dissolving in a little dimethyl sulfoxide respectively, using pH7 phosphate buffer to dilute into solution which is equivalent to contain amphotericin B 280 Units per milliliter, taking 1 ml and using pH7 phosphate buffer to quantitatively dilute into solution which is equivalent to contain amphotericin B 2.8 μg/ml.
Again, preparing the solution according to the same method, adding 10% defibered sheep blood serum, using pH7 phosphate buffer to quantitatively dilute into solution which is equivalent to contain amphotericin B 2.8 μg/ml.
4. Mixing the amphotericin B methyl pivalate prepared by example 1 with sheep blood serum at 37° C. and culturing.
Referring to the test conditions of HPLC of example 25, wherein the mobile phase is acetonitrile: 0.05M ammonium acetate solution=60:40.

Where [4] appears, read: 0 h, 1.4 μg/ml after conversion, no serum.
Setting [5] is: 0 h, 1.4 μg/ml after conversion, serum added (40% defibered sheep serum).
The mark [6] stands for this setting: 0 h, 2.8 μg/ml after conversion, no serum.
The mark [7] stands for this setting: 0 h, 2.8 μg/ml after conversion, serum added (40% defibered sheep serum).
[8] abbreviates: 6 h, 1.4 μg/ml after conversion, no serum.
[9] abbreviates: 6 h, 1.4 μg/ml after conversion, serum added (40% defibered sheep serum).
The mark [10] stands for this setting: 6 h, 2.8 μg/ml after conversion, no serum.
Where [11] appears, read: 24 h, 1.4 μg/ml after conversion, no serum.
[12] abbreviates: 24 h, 2.8 μg/ml after conversion, no serum.
The mark [13] stands for this setting: 48 h, 1.4 μg/ml after conversion, no serum.
[14] abbreviates: 48 h, 2.8 μg/ml after conversion, no serum.

As to `C[C@@H]1[C@H](O)[C@@H](C)/C=C/C=C/C=C/C=C/C=C/C=C/C=C/[C@H](O[C@@H]2O[C@H](C)[C@@H](O)[C@H](N)[C@@H]2O)C[C@@H]2O[C@](O)(C[C@@H](O)C[C@@H](O)[C@H](O)CC[C@@H](O)C[C@@H](O)CC(=O)O[C@H]1C)C[C@H](O)[C@H]2C(=O)O` [amphotericin B, reference compound], the zone of inhibition at 1.4 µg/mL was in the range of 12 to 14 mm in the data set on Candida albicans (0 h, 1.4 μg/ml after conversion, serum added (40% defibered sheep serum), read-out: diameter of the bacteria-inhibition zone, Candida albicans 0 h); 12 to 14 mm in the data set on Candida albicans (6 h, 1.4 μg/ml after conversion, serum added (40% defibered sheep serum), read-out: diameter of the bacteria-inhibition zone, Candida albicans 6 h); 12 to 14 mm with Candida albicans (24 h, 1.4 μg/ml after conversion, serum added (40% defibered sheep serum), read-out: diameter of the bacteria-inhibition zone, Candida albicans 24 h); 12 to 14 mm in the data set on Candida albicans (48 h, 1.4 μg/ml after conversion, serum added (40% defibered sheep serum), read-out: diameter of the bacteria-inhibition zone, Candida albicans 48 h); 12 to 14 mm in the data set with Candida mycoderma (0 h, 1.4 μg/ml after conversion, serum added (40% defibered sheep serum), read-out: diameter of the bacteria-inhibition zone, Candida mycoderma 0 h); 12 to 14 mm in the data set on Candida mycoderma (6 h, 1.4 μg/ml after conversion, serum added (40% defibered sheep serum), read-out: diameter of the bacteria-inhibition zone, Candida mycoderma 6 h). The zone of inhibition at 1.4 µg/mL with Candida mycoderma (24 h, 1.4 μg/ml after conversion, serum added (40% defibered sheep serum), read-out: diameter of the bacteria-inhibition zone, Candida mycoderma 24 h) was in the range of 12 to 14 mm; in the data set on Candida mycoderma (48 h, 1.4 μg/ml after conversion, serum added (40% defibered sheep serum), read-out: diameter of the bacteria-inhibition zone, Candida mycoderma 48 h), 12 to 14 mm; in the data set on Saccharomyces cerevisiae (0 h, 1.4 μg/ml after conversion, serum added (40% defibered sheep serum), read-out: diameter of the bacteria-inhibition zone, Saccharomyces cerevisiae 0 h), 14 to 16 mm; in the data set on Saccharomyces cerevisiae (6 h, 1.4 μg/ml after conversion, serum added (40% defibered sheep serum), read-out: diameter of the bacteria-inhibition zone, Saccharomyces cerevisiae 6 h), 14 to 16 mm; in the data set on Saccharomyces cerevisiae (24 h, 1.4 μg/ml after conversion, serum added (40% defibered sheep serum), read-out: diameter of the bacteria-inhibition zone, Saccharomyces cerevisiae 24 h), 14 to 16 mm; in the data set on Saccharomyces cerevisiae (48 h, 1.4 μg/ml after conversion, serum added (40% defibered sheep serum), read-out: diameter of the bacteria-inhibition zone, Saccharomyces cerevisiae 48 h), 14 to 16 mm. Also, the zone of inhibition at 2.8 µg/mL was 14 to 16 mm with Candida albicans (0 h, 2.8 μg/ml after conversion, no serum, read-out: diameter of the bacteria-inhibition zone, Candida albicans 0 h); 14 to 16 mm in the data set on Candida albicans (6 h, 2.8 μg/ml after conversion, no serum, read-out: diameter of the bacteria-inhibition zone, Candida albicans 6 h); 14 to 16 mm in the data set with Candida albicans (24 h, 2.8 μg/ml after conversion, no serum, read-out: diameter of the bacteria-inhibition zone, Candida albicans 24 h); 14 to 16 mm with Candida albicans (48 h, 2.8 μg/ml after conversion, no serum, read-out: diameter of the bacteria-inhibition zone, Candida albicans 48 h); 14 to 16 mm with Candida mycoderma (0 h, 2.8 μg/ml after conversion, no serum, read-out: diameter of the bacteria-inhibition zone, Candida mycoderma 0 h); 14 to 16 mm with Candida mycoderma (6 h, 2.8 μg/ml after conversion, no serum, read-out: diameter of the bacteria-inhibition zone, Candida mycoderma 6 h). In addition, the zone of inhibition at 2.8 µg/mL in the data set on Candida mycoderma (24 h, 2.8 μg/ml after conversion, no serum, read-out: diameter of the bacteria-inhibition zone, Candida mycoderma 24 h) is 14 to 16 mm; in the data set with Candida mycoderma (48 h, 2.8 μg/ml after conversion, no serum, read-out: diameter of the bacteria-inhibition zone, Candida mycoderma 48 h), 14 to 16 mm; in the data set with Saccharomyces cerevisiae (0 h, 2.8 μg/ml after conversion, no serum, read-out: diameter of the bacteria-inhibition zone, Saccharomyces cerevisiae 0 h), 16 to 18 mm; in the data set with Saccharomyces cerevisiae (6 h, 2.8 μg/ml after conversion, no serum, read-out: diameter of the bacteria-inhibition zone, Saccharomyces cerevisiae 6 h), 16 to 18 mm; in the data set on Saccharomyces cerevisiae (24 h, 2.8 μg/ml after conversion, no serum, read-out: diameter of the bacteria-inhibition zone, Saccharomyces cerevisiae 24 h), 16 to 18 mm; with Saccharomyces cerevisiae (48 h, 2.8 μg/ml after conversion, no serum, read-out: diameter of the bacteria-inhibition zone, Saccharomyces cerevisiae 48 h) it was 16 to 18 mm. The “minimum inhibitory concentration (MIC)” value in the data set with most of the fungal is 0.02 to 1 µg/mL.

For the compound `COC(=O)[C@H]1[C@@H]2C[C@@H](O[C@@H]3O[C@H](C)[C@@H](O)[C@H](N)[C@@H]3O)/C=C/C=C/C=C/C=C/C=C/C=C/C=C/[C@H](C)[C@@H](O)[C@@H](C)[C@H](C)OC(=O)C[C@H](O)C[C@H](O)CC[C@@H](O)[C@H](O)C[C@H](O)C[C@](O)(C[C@@H]1O)O2` [amphotericin methyl ester], the “hydrolysis by esterase in vivo” value with esterase [1] was “cannot be hydrolyzed by esterase in vivo”. For the same compound, the toxicity entry in data set [2] is “toxicity was lowered”.

As for amphotericin B methyl pivalate, the “diameter of the bacteria-inhibition zone, Candida albicans 0 h” value in the data set with Candida albicans (setting [4]) is “+ (7-9 mm: +)”; with Candida albicans (setting [5]), “+ (7-9 mm: +)”; with Candida albicans (setting [6]), “++ (9-12 mm: ++)”; with Candida albicans (setting [7]), “++ (9-12 mm: ++)”. Further, the “diameter of the bacteria-inhibition zone, Candida albicans 6 h” value in the data set with Candida albicans (setting [8]) is given as “+ (7-9 mm: +)”; with Candida albicans (setting [9]) it was “++ (9-12 mm: ++)”; in the data set on Candida albicans (setting [10]), “++ (9-12 mm: ++)”. In addition, the “diameter of the bacteria-inhibition zone, Candida albicans 24 h” value in the data set on Candida albicans (setting [11]) is “+ (7-9 mm: +)”; with Candida albicans (setting [12]) it was “++ (9-12 mm: ++)”. Further, the “diameter of the bacteria-inhibition zone, Candida albicans 48 h” value in the data set with Candida albicans (setting [13]) is listed as “+ (7-9 mm: +)”; with Candida albicans (setting [14]), “++ (9-12 mm: ++)”. In addition, the “hydrolysis by esterase to release the original drug, after 24 hours” value in the data set with esterase [3] (10% defibered sheep blood serum, 37° C., 24 hours) is “most of the diester derivative is hydrolyzed by esterase to release amphotericin B”. The “hydrolysis by esterase under sheep blood serum cultivation, release of the original drug” value in the data set on esterase [3] (sheep blood serum, 37° C., 2, 6 and 24 hours) was “gradually hydrolyzed by esterase”. In addition, the “diameter of the bacteria-inhibition zone, Candida mycoderma 0 h” value with Candida mycoderma (setting [4]) is listed as “+ (7-9 mm: +)”; in the data set on Candida mycoderma (setting [5]), “+ (7-9 mm: +)”; in the data set on Candida mycoderma (setting [6]) it was “++ (9-12 mm: ++)”; with Candida mycoderma (setting [7]), “++ (9-12 mm: ++)”. In addition, the entries for the “diameter of the bacteria-inhibition zone, Candida mycoderma 6 h” value in the data set on Candida mycoderma (setting [8]), in the data set on Candida mycoderma (setting [9]) and in the data set with Candida mycoderma (setting [10]) were “+ (7-9 mm: +)”, “++ (9-12 mm: ++)” and “++ (9-12 mm: ++)”, respectively. Also, the “diameter of the bacteria-inhibition zone, Candida mycoderma 24 h” value in the data set on Candida mycoderma (setting [11]) was “+ (7-9 mm: +)”; in the data set with Candida mycoderma (setting [12]), “++ (9-12 mm: ++)”. Moreover, the “diameter of the bacteria-inhibition zone, Candida mycoderma 48 h” value was “+ (7-9 mm: +)” with Candida mycoderma (setting [13]) and “++ (9-12 mm: ++)” in the data set with Candida mycoderma (setting [14]). In addition, the “diameter of the bacteria-inhibition zone, Saccharomyces cerevisiae 0 h” value is on record as “+ (7-9 mm: +)” in the data set with Saccharomyces cerevisiae (setting [4]), “+ (7-9 mm: +)” with Saccharomyces cerevisiae (setting [5]), “++ (9-12 mm: ++)” in the data set on Saccharomyces cerevisiae (setting [6]) and “++ (9-12 mm: ++)” in the data set on Saccharomyces cerevisiae (setting [7]). Further, the “diameter of the bacteria-inhibition zone, Saccharomyces cerevisiae 6 h” value in the data set with Saccharomyces cerevisiae (setting [8]) is “+ (7-9 mm: +)”; with Saccharomyces cerevisiae (setting [10]), “++ (9-12 mm: ++)”. Also, the “diameter of the bacteria-inhibition zone, Saccharomyces cerevisiae 24 h” value with Saccharomyces cerevisiae (setting [11]) was “+ (7-9 mm: +)”; with Saccharomyces cerevisiae (setting [12]), “++ (9-12 mm: ++)”. Moreover, the “diameter of the bacteria-inhibition zone, Saccharomyces cerevisiae 48 h” value in the data set with Saccharomyces cerevisiae (setting [13]) is “+ (7-9 mm: +)”; in the data set on Saccharomyces cerevisiae (setting [14]), “++ (9-12 mm: ++)”.
